From paper PMC5656322, “BAK1 is involved in AtRALF1-induced inhibition of root cell expansion” (PLoS Genetics, 2017)
Where no end group is shown, it is not given here.

Legend:
BAK1-GFP = experiment: BAK1 protein accumulation, protein blot anti-GFP; assay type: in vivo, Arabidopsis thaliana; settings: pBAK1:BAK1-GFP plants, 1 μM
Experimental: Fig 4 The BAK1 gene is induced by AtRALF1. (A) BAK1 gene expression in the roots of Arabidopsis seedlings (10-days-old) treated with AtRALF1. Root tissues were collected 1 h after treatment. Semi-quantitative RT-PCR and qRT-PCR were performed using total RNA extracted from the roots of untreated (-) or treated (+) plants. GAPDH expression was used as an internal control. (B) Quantification of GFP fluorescence intensity. The values are the mean ± SD of 20 seedlings. Student’s t test was used to compare the values obtained from treated and untreated seedlings. Double asterisk indicates P < 0.05 (Student’s t test); ns, not significant. (C) Representative confocal images of pBAK1:BAK1-GFP seedlings (4 days old) treated with 1 μM AtRALF1. Images were captured 4 h after treatment and were obtained by scanning 10 slices over a distance of 7 μm. MZ, meristematic zone; EZ, elongation zone; DZ, Differentiation zone. Bars, 100 μm. (D) pBAK1:BAK1-GFP plants were treated with water or 1 μM AtRALF1. After treatment, protein extracts from pBAK1:BAK1-GFP roots were subjected to immunoblot analysis with anti-GFP antibody. Ponceau was used to show equal loading of protein.

[1] = test system: Arabidopsis seedlings, primary root; settings: wild-type Arabidopsis; ref [5]; cited from earlier work
Experimental: To better understand the role of AtRALF1 and BRs in regulating cell expansion, we exposed different mutants and transgenic Arabidopsis plants with altered BR signaling pathways to the peptide hormone AtRALF1 at concentrations that inhibit root growth. Loss-of-function mutants (bri1-301, bsk3-2 and bak1-4), gain-of-function mutants (sud1, bes1-D and bzr1-D) and two overexpressor lines (BRI OX and DWF4 OX) were used in the root growth assays in the presence or absence of 10 μM AtRALF1 (Fig 1A).

[2] = test system: Arabidopsis endodermic root cells; experiment: Root cell length, endodermis of differentiation zone; assay type: in vivo, Arabidopsis thaliana; settings: 10 μM, 2 days
Experimental: (A) and (B) Arabidopsis seedlings (2 days old) were treated with 10 μM AtRALF1 or water (H20) for 2 days. The values are the mean ± SD of at least 25 seedlings. Triple asterisks indicate P < 0.01 (Student’s t test); ns, not significant. (C) Four-day-old seedlings were transferred to media containing different concentrations of AtRALF1, and the primary root length was measured after 8 days of treatment. The data represent the mean value ± SD of 30 seedlings. […] Representative Arabidopsis seedlings after 8 days of treatment with AtRALF1 are shown below. Seedlings were arranged on plates after the treatment for imaging. Scale bars, 1 cm. (D) Two-day-old seedlings were treated with 10 μM AtRALF1 or water for 2 days, and root cell length was measured after 2 days of treatment. Cells from the root endodermis in the differentiation zone were measured. The values are the mean ± SD of approximately 150 cells. […]
Aliquots of 1 ml of medium containing seeds were distributed into 24-well plates. The peptides (10 μM) were added after 2 days, and the root length was measured 2 days after treatment. […] The root length was measured 8 days after treatment unless stated otherwise. […] Quantitative data were obtained as previously described. […] For cell length measurements, AtRALF1 peptide (10 μM) was added after 2 days of germination, and the cell length was measured after 2 days of treatment. […]

BAK1 = BAK1 phosphorylation assay, anti-phosphothreonine; assay type: in vivo, Arabidopsis thaliana; settings: 20 min
Experimental: Transgenic plants pBAK1:BAK1-6xHA were grown in vertical plates for 10–15 days. The plants were treated with 0.1 μM BL, 2 μM RALF1(9–49), 1 μM, 2 μM or 10 μM AtRALF1 for 20 min. The roots were isolated, and the microsomal fractions were obtained as described above. The microsomal fractions were incubated with anti-HA beads (EZview Red Anti-HA Affinity Gel, Sigma) for 2 h at 4 °C to immunoprecipitate the BAK1 protein. The unbound materials were removed by washing 3 times. Proteins were separated by SDS/PAGE and further analyzed by protein blotting using anti-HA (Thermo Scientific), or anti-phosphothreonine (Novus Biologicals), or anti-phosphoserine (Novus Biologicals) antibodies.

For “AtRALF1: root-specific RALF isoform in Arabidopsis; recombinant peptide hormone produced in E. coli (ATTKYISYQSLKRNSVPCSRRGASYYNCQNGAQANPYSRGCSKIARCRS; ends and bridges not checked; cysteine pairing not given here)”, the BAK1 protein accumulation (BAK1-GFP) is listed as “BAK1 protein accumulation was also verified by protein blot”, the “primary root growth inhibition” value [1] is listed as “inhibits the primary root growth of wild-type Arabidopsis plants” and the “root cell length vs water-treated control” value ([2]; bak1-1, bak1-3, bak1-4) is listed as “showed no difference between AtRALF1-treated plants and the water-treated control”. The “reduction of root cell length vs water-treated control” value ([2]; wild-type, ~150 cells) was 58%, the “further increase of BAK1 Thr phosphorylation” value (BAK1; 10 μM) was “did not result in further increases in phosphorylation” and the “upper concentration of dose-dependent BAK1 Thr phosphorylation” value (BAK1; pBAK1:BAK1-HA roots) was “up to 2 μM”. For the same substance, the “BAK1 phosphorylation in threonine residues” value (BAK1; pBAK1:BAK1-HA roots, AtRALF1 1, 2, 10 μM, BL 0.1 μM) was “increase in BAK1 phosphorylation in the threonine residues similar to the increase resulting from the treatment of the seedlings with BL”.
